{
  "source": "patent EP1536235A2",
  "about": "“Method for detecting environmental pollution using 14-3-3 proteins as biomarkers” (MÜLLER, Werner E. G., priority 1998, dated 1999)",
  "key": {"14-3-3 [1]": {"test_system": "14-3-3", "assay": "Northern blotting of 14-3-3 mRNA after exposure of the sponge", "type": "in vivo, G. cydonium", "conditions": "PCB 118 2 µg/g, 17 beta-Östradiol 20 ng/g, alone or in combination; 17 beta-Östradiol = 100% reference value; incubation 3 or 6 days; not detectable without agents", "source_text": "(§1) Für eine Quantifizierung der mRNA für 14-3-3 mittels Northern-Blotting Verfahren werden Gensonden hergestellt, die von den konservierten Anfangsbereichen [aa45-aa57] bis zu den konservierten Endbereichen [aa214-aa234] des 14-3-3 Proteins reichen (ABB. 2). Als Methodik wird die PCR-Klonierung eingesetzt. Die erhaltenen APPROX 500 bp langen Sonden eignen sich erfahrungsgemäß gut für Northern-Blotting-Untersuchungen.\n(§2) Die quantitative Auswertung der Signale kann zum Beispiel mit Hilfe des Chemilumineszenz-Verfahrens (Stanley und Kricka, Bioluminescence and chemiluminescence: current status. John Wiley & Sons, New York, 1990) in Verbindung mit einem Phospholmager (z. B. GS-525 Molecular Imager der Firma Bio-Rad) erfolgen; Dinatrium 2-Chlor-5-(4-methoxyspiro 1,2-dioxetane-3,2'-(5'-chlor)-tricyclo[3.3.1.13,7]decan-4-yl)phenyl-phosphat (CDP) wird hierfür als Substrat angewandt.\nDurchfiihrung: • (a) Exposition von G. cydonium gegenüber PCB 118: 1 ml PCB 118 (0.1 mg/ml in Kornöl) wurde in […] Schwammgewebe injiziert. Die Proben wurden in Seewasser für bis zu 6 Tage in 20 1 Aquarien bei 17°C unter kontinuierlicher Belüftung inkubiert; das Wasser wurde einmal am Tag 2 gewechselt. Aliquote Teile des Gewebes (ungefähr je 200 mg) wurden zum Zeitpunkt Null oder nach einer Inkubationszeit von 0.5, 1, 3, 5 und 6 Tagen entnommen. […]"}, "14-3-3 Protein": {"test_system": "14-3-3 Protein", "assay": "ELISA quantification of 14-3-3 protein in liver after i.p. injection", "conditions": "liver after 5 days, Kontrolle 0,12", "method": "Vorgegangen wurde hierbei nach den Instruktionen des Herstellers. Überschüssige Maleimidgruppen auf den Platten wurden durch einstündige Inkubation der Platten mit einer Cysteinlösung (10 µg/ml) blockiert.\nDie Durchführung erfolgt in folgenden Schritten: • Variante 1 • 1a. Inkubation der Streptavidin-beschichteten Mikrotiterplatten mit dem Biotingekoppelten Peptid. • 2a. Zugabe von 100 µl Extrakt aus den untersuchten Tiergeweben in die Wells nach Bindung des Peptids über Biotin und Streptavidin. Oder: • 1a. Inkubation der Extrakte aus den untersuchten Tiergeweben mit dem Biotingekoppelten Peptid. • 2a. Zugabe von 100 µl der Inkubationsmischungen nach Bindung des Biotin-Peptids an 14-3-3 in die Wells. • 3. Waschen. • 4. Quantifizierung der Peptid-14-3-3 Komplexe über markierte Antikörper. Als Markierung kann zum Beispiel die alkalische Phosphatase verwendet werden; als Substrat zum Nachweis dient dann 5-Brom-4-Chlor-3-Indolylphosphat/Nitroblau-Tetrazolium. • 5. Detektion mittels eines ELISA-Platten-Readers. • Variante 2 • 1. Zugabe von 100 µl Extrakt in die Wells der Mikrotiterplatten mit dem gekoppelten Peptid und Inkubation. • 2. Waschen. • 3. Quantifizierung der Peptid-14-3-3 Komplexe über markierte Antikörper (siehe Variante 1). • 4. Detektion mittels eines ELISA-Platten-Readers.\nDie in Tabelle 1 angegebenen Mengen an PCB 77, PCB 118 und PCB 153 wurden nach Auflösung in Kornöl in Klieschen (Limanda limanda) injiziert. […] Nach den angegebenen Zeiträumen wurde den Tieren die Leber entnommen und sofort eingefroren. Die Bestimmung des Gehalts an 14-3-3 in den Lebern erfolgte nach Homogenisation durch Mörsern der gefrorenen Gewebeproben in dem dreifachen Volumen an Phosphat-Puffer mit 1 mM EDTA und 1 mM Phenylmethylsulfonylfluorid."}, "14-3-3 [2]": {"test_system": "14-3-3", "assay": "Keeping experiments with PCB 118: 14-3-3 expression by Northern and Western blotting", "type": "in vivo, Geodia cydonium", "conditions": "2 µg PCB 118/g wet weight, 0,5 to 6 days; Northern (mRNA) and Western blotting (protein)", "source_text": "as §1, §2\nDer Nachweis der Expression von 14-3-3 auf Protein-Ebene erfolgt mittels Antikörper. Entweder können kommerzielle (z. B. von der Firma Calbiochem/Oncogene) oder gegen das rekombinante Invertebraten-Protein 14-3-3 aus Geodia cydonium gezogene Antikörper eingesetzt werden. Zur Quantifizierung der 14-3-3 Proteine werden Western-Blots mit Extrakten des Bioindikators hergestellt. Die Signale können wieder unter Anwendung des Chemilumineszenz-Verfahrens quantifiziert werden. Die Gewebeextrakte können z. […]"}, "[3]": {"conditions": "i.p. 0.03 mg PCB pro kg Limanda limanda"}},
  "data": [
    {"smiles": "C[C@]12CC[C@@H]3c4ccc(O)cc4CC[C@H]3[C@@H]1CC[C@@H]2O", "note": "[17 beta-Östradiol]", "values": [
      {"measurement": "Niveau der mRNA von 14-3-3", "setting": "14-3-3 [1]", "value": 100, "unit": "%"}
    ]},
    {"smiles": "[Cd]", "note": "[Cadmium]", "values": [
      {"measurement": "14-3-3 Protein (OD-Einheit)", "setting": "14-3-3 Protein; Cadmium 0,01 mg/kg i.p.", "value": "0,30 OD-Einheit"},
      {"measurement": "14-3-3 Protein (OD-Einheit)", "setting": "14-3-3 Protein; Cadmium 0,1 mg/kg i.p.", "value": "0,98 OD-Einheit"},
      {"measurement": "14-3-3 Protein (OD-Einheit)", "setting": "14-3-3 Protein; Cadmium 0,03 mg/kg i.p.", "value": "0,75 OD-Einheit"}
    ]},
    {"smiles": "Clc1ccc(-c2ccc(Cl)c(Cl)c2)cc1Cl", "note": "[PCB77, PCB 77]", "values": [
      {"measurement": "14-3-3 Protein (OD-Einheit)", "setting": "14-3-3 Protein; [3]", "value": "0,97 OD-Einheit"}
    ]},
    {"smiles": "Clc1cc(Cl)c(-c2cc(Cl)c(Cl)cc2Cl)cc1Cl", "note": "[PCB153, PCB 153]", "values": [
      {"measurement": "14-3-3 Protein (OD-Einheit)", "setting": "14-3-3 Protein; [3]", "value": "0,81 OD-Einheit"}
    ]},
    {"smiles": "Clc1ccc(-c2cc(Cl)c(Cl)cc2Cl)cc1Cl", "note": "[PCB 118]", "values": [
      {"measurement": "Niveau der mRNA von 14-3-3", "setting": "14-3-3 [1]", "value": 30, "unit": "%"},
      {"measurement": "Expression des 14-3-3-Gens", "setting": "14-3-3 [2]", "value": "von nicht nachweisbar auf sehr hohe Werte induziert"},
      {"measurement": "14-3-3 Protein (OD-Einheit)", "setting": "14-3-3 Protein; [3]", "value": "0,74 OD-Einheit"}
    ]}
  ]
}
